From PMC10178848, “Modulating fast skeletal muscle contraction protects skeletal muscle in animal models of Duchenne muscular dystrophy” (The Journal of Clinical Investigation, 2023)

System: psoas S1 (fast skeletal muscle myosin)
Assay: Stopped-flow analysis of Pi release from myosin
Type: biochemical, rabbit
Parameters: dose or concentration left out as unconfirmed
Conditions: preincubation with myosin 30 minutes prior to actin
Procedure: The rate of Pi release from myosin with actin utilized a fluorescent phosphate binding protein, as described previously ([63]). Experiments were performed in 10 mM MOPS, pH 7.0; 5 mM KCL; 1 mM EGTA; 1 mM DTT; 0.5 mM MgCl2. ATP and ADP were removed by incubation with apyrase ([64]). Prior to mixing with 1 mM ATP in a stopped flow device, compound was incubated with 6 μM psoas S1 at 25°C for 30 minutes.

## Cc1ccc(S(=O)(=O)NCc2ccccc2)cc1 [BTS, N-benzyl-p-toluene sulfonamide, reference compound]
  rate of Pi release from myosin with actin: decreased the rate of Pi release
